T/C data for 12 compounds are collected here from PubChem BioAssay AID256 (DTP/NCI, 2004).

The subject of this test is CD2F1 mice, L1210 leukemia ip, survival T/C. The test is described as follows: NCI In Vivo Anticancer Drug Screen. Data for tumor model L1210 Leukemia (intraperitoneal) in CD2F1 (CDF1) mice. Conditions: higher = longer survival. Put shortly:
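Transplantable tumor in mice; compound-treated vs vehicle-treated groups. Read-out = treated/control ratio of the measured endpoint.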

[1] abbreviates: endpoint: mean survival time, dose: 37.5 mg/kg/injection, schedule: Q01DX009 (ip), vehicle: saline with Tween-80.
[2] abbreviates: endpoint: mean survival time, dose: 150.0 mg/kg/injection, schedule: Q01DX009 (ip), vehicle: saline with Tween-80.
[3] abbreviates: endpoint: mean survival time, dose: 100.0 mg/kg/injection, schedule: Q01DX001 (ip), vehicle: saline with Tween-80.
Setting [4] is: endpoint: mean survival time, dose: 200.0 mg/kg/injection, schedule: Q01DX001 (ip), vehicle: saline with Tween-80.
Where [5] appears, read: endpoint: mean survival time, dose: 100.0 mg/kg/injection, schedule: Q04DX003 (ip), vehicle: saline with Tween-80.
[6] abbreviates: endpoint: mean survival time, dose: 400.0 mg/kg/injection, schedule: Q04DX003 (ip), vehicle: saline with Tween-80.
Where [7] appears, read: endpoint: mean survival time, dose: 200.0 mg/kg/injection, schedule: Q04DX003 (ip), vehicle: saline with Tween-80.

Where “and” joins values, the source holds several entries; their conditions need not be identical. Identical values can stand only once. Toxic doses and inconclusive results are not listed.

As to `NC(=S)N/N=C/c1ccc(O)cn1`, the T/C is, setting by setting: (endpoint: mean survival time, dose: 12.5 mg/kg/injection, schedule: Q01DX009 (ip), vehicle: saline) 124 % of control; (endpoint: mean survival time, dose: 12.5 mg/kg/injection, schedule: Q03HX024 (ip), vehicle: saline) 153 % of control and 163 % of control; (endpoint: mean survival time, dose: 18.8 mg/kg/injection, schedule: Q01DX009 (ip), vehicle: saline with Tween-80) 162 % of control; (endpoint: mean survival time, dose: 25.0 mg/kg/injection, schedule: Q01DX009 (ip), vehicle: saline with Tween-80) 155 % of control; (endpoint: mean survival time, dose: 25.0 mg/kg/injection, schedule: Q01DX009 (ip), vehicle: saline) 150 % of control and 170 % of control; (endpoint: mean survival time, dose: 25.0 mg/kg/injection, schedule: Q01DX009 (oral), vehicle: saline) 94 % of control. In addition, the T/C reads like this: (endpoint: mean survival time, dose: 25.0 mg/kg/injection, schedule: Q03HX024 (ip), vehicle: saline) 168 % of control and 217 % of control; under setting [1], 160 % of control and 166 % of control; (endpoint: mean survival time, dose: 50.0 mg/kg/injection, schedule: Q01DX009 (ip), vehicle: saline with Tween-80) 183 % of control; (endpoint: mean survival time, dose: 50.0 mg/kg/injection, schedule: Q01DX009 (ip), vehicle: saline) 151 % of control and 154 % of control; (endpoint: mean survival time, dose: 50.0 mg/kg/injection, schedule: Q01DX009 (oral), vehicle: saline) 95 % of control; (endpoint: mean survival time, dose: 50.0 mg/kg/injection, schedule: Q03HX024 (ip), vehicle: saline) 162 % of control and 211 % of control. Further, the T/C runs as follows: (endpoint: mean survival time, dose: 100.0 mg/kg/injection, schedule: Q01DX009 (ip), vehicle: saline with Tween-80) 102 % of control; (endpoint: mean survival time, dose: 100.0 mg/kg/injection, schedule: Q01DX009 (oral), vehicle: saline) 103 % of control; under setting [2], 103 % of control; (endpoint: mean survival time, dose: 200.0 mg/kg/injection, schedule: Q01DX009 (ip), vehicle: saline) 115 % of control and 110 % of control; (endpoint: mean survival time, dose: 200.0 mg/kg/injection, schedule: Q01DX009 (oral), vehicle: saline) 102 % of control; (endpoint: mean survival time, dose: 400.0 mg/kg/injection, schedule: Q01DX009 (ip), vehicle: saline) 88 % of control and 92 % of control. Besides, the T/C (endpoint: mean survival time, dose: 400.0 mg/kg/injection, schedule: Q01DX009 (oral), vehicle: saline) is 114 % of control; the T/C (endpoint: median survival time, dose: 20.0 mg/kg/injection, schedule: Q03HX024 (ip), vehicle: saline) is 152 % of control and 566 % of control; the T/C (endpoint: median survival time, dose: 21.8 mg/kg/injection, schedule: Q03HX008 (ip), vehicle: suspension in saline) is 185 % of control; the T/C (endpoint: median survival time, dose: 22.5 mg/kg/injection, schedule: Q03HX024 (ip), vehicle: suspension in saline) is 214 % of control; the T/C (endpoint: median survival time, dose: 32.6 mg/kg/injection, schedule: Q03HX008 (ip), vehicle: suspension in saline) was 188 % of control; the T/C (endpoint: median survival time, dose: 40.0 mg/kg/injection, schedule: Q03HX024 (ip), vehicle: saline) was 210 % of control and 566 % of control. Besides, the T/C is, setting by setting: (endpoint: median survival time, dose: 45.0 mg/kg/injection, schedule: Q03HX024 (ip), vehicle: suspension in saline) 238 % of control; (endpoint: median survival time, dose: 45.0 mg/kg/injection, schedule: Q04DX003 (ip), vehicle: suspension in saline) 119 % of control; (endpoint: median survival time, dose: 48.6 mg/kg/injection, schedule: Q03HX008 (ip), vehicle: suspension in saline) 232 % of control; (endpoint: median survival time, dose: 50.0 mg/kg/injection, schedule: Q03HX024 (ip), vehicle: saline) 566 % of control; (endpoint: median survival time, dose: 60.0 mg/kg/injection, schedule: Q03HX024 (ip), vehicle: saline) 566 % of control; (endpoint: median survival time, dose: 80.0 mg/kg/injection, schedule: Q03HX024 (ip), vehicle: saline) 119 % of control. For the same compound, the T/C was 122 % of control (endpoint: median survival time, dose: 90.0 mg/kg/injection, schedule: Q04DX003 (ip), vehicle: suspension in saline); 94 % of control (endpoint: median survival time, dose: 108.3 mg/kg/injection, schedule: Q03HX008 (ip), vehicle: suspension in saline); 152 % of control (endpoint: median survival time, dose: 161.6 mg/kg/injection, schedule: Q04DX003 (ip), vehicle: suspension in saline); 110 % of control (endpoint: median survival time, dose: 180.0 mg/kg/injection, schedule: Q03HX024 (ip), vehicle: suspension in saline); 156 % of control (endpoint: median survival time, dose: 241.2 mg/kg/injection, schedule: Q04DX003 (ip), vehicle: suspension in saline); 176 % of control and 211 % of control (endpoint: median survival time, dose: 360.0 mg/kg/injection, schedule: Q04DX003 (ip), vehicle: suspension in saline). The T/C is, setting by setting: (endpoint: median survival time, dose: 537.3 mg/kg/injection, schedule: Q04DX003 (ip), vehicle: suspension in saline) 184 % of control; (endpoint: median survival time, dose: 720.0 mg/kg/injection, schedule: Q04DX003 (ip), vehicle: suspension in saline) 122 % of control.

As to `Cc1ccc(S(=O)(=O)N/N=C/c2ccc(Cl)s2)cc1`, the T/C was 94 % of control under setting [3]; 97 % of control under setting [4]; 97 % of control (endpoint: mean survival time, dose: 400.0 mg/kg/injection, schedule: Q01DX001 (ip), vehicle: saline with Tween-80).

With `Nc1cc(Cl)c(Cl)cc1S(=O)(=O)NO`, the T/C was 95 % of control under setting [5] and 89 % of control under setting [6].

In the case of `NC1CCCCC1N.O=S(=O)([O-])CCCN1CCOCC1.O=S(=O)([O-])CCCN1CCOCC1.[Pt+4]`, the T/C was 361 % of control (endpoint: median survival time, dose: 3.12 mg/kg/injection, schedule: Q04DX003 (ip), vehicle: saline with Tween-80); 174 % of control and 361 % of control (endpoint: median survival time, dose: 6.25 mg/kg/injection, schedule: Q04DX003 (ip), vehicle: saline with Tween-80); 195 % of control and 196 % of control (endpoint: median survival time, dose: 12.5 mg/kg/injection, schedule: Q04DX003 (ip), vehicle: saline with Tween-80); 341 % of control and 361 % of control (endpoint: median survival time, dose: 25.0 mg/kg/injection, schedule: Q04DX003 (ip), vehicle: saline with Tween-80); 228 % of control and 365 % of control (endpoint: median survival time, dose: 50.0 mg/kg/injection, schedule: Q04DX003 (ip), vehicle: saline with Tween-80).

Turning to `COc1cc(C(C2=C(O)c3ccccc3C(=O)C2=O)C2=C(O)c3ccccc3C(=O)C2=O)cc(Br)c1O`, the T/C runs as follows: (endpoint: mean survival time, dose: 100.0 mg/kg/injection, schedule: Q01DX009 (ip), vehicle: alcohol) 101 % of control; (endpoint: mean survival time, dose: 200.0 mg/kg/injection, schedule: Q01DX009 (ip), vehicle: alcohol) 93 % of control.

Regarding `COc1cccc(C(=O)O)c1C(=O)O`, the T/C is 92 % of control (endpoint: mean survival time, dose: 12.5 mg/kg/injection, schedule: Q01DX005 (ip), vehicle: other); 92 % of control (endpoint: mean survival time, dose: 25.0 mg/kg/injection, schedule: Q01DX005 (ip), vehicle: other); 89 % of control (endpoint: mean survival time, dose: 50.0 mg/kg/injection, schedule: Q01DX005 (ip), vehicle: other); 98 % of control (endpoint: mean survival time, dose: 100.0 mg/kg/injection, schedule: Q01DX005 (ip), vehicle: other); 101 % of control (endpoint: mean survival time, dose: 200.0 mg/kg/injection, schedule: Q01DX005 (ip), vehicle: other); 96 % of control (endpoint: mean survival time, dose: 400.0 mg/kg/injection, schedule: Q01DX005 (ip), vehicle: other).

`c1ccc(CNc2ccccn2)cc1`: the T/C under setting [5] is 97 % of control, the T/C under setting [7] was 97 % of control and the T/C under setting [6] is 95 % of control.

On to `O=CC(O)C(O)C(O)C(O)C(O)CO` (stereo not given), for which the T/C by setting is: (endpoint: mean survival time, dose: 100.0 mg/kg/injection, schedule: Q01DX001 (ip), vehicle: saline) 94 % of control; (endpoint: mean survival time, dose: 200.0 mg/kg/injection, schedule: Q01DX001 (ip), vehicle: saline) 103 % of control; (endpoint: mean survival time, dose: 400.0 mg/kg/injection, schedule: Q01DX001 (ip), vehicle: saline) 97 % of control.

As for `O=C(Nc1cccc2ccccc12)[C@H]1C[C@H]2C=C[C@@H]1C2`, the T/C is 101 % of control under setting [1]; 95 % of control (endpoint: mean survival time, dose: 75.0 mg/kg/injection, schedule: Q01DX009 (ip), vehicle: saline with Tween-80); 95 % of control under setting [2]; 97 % of control (endpoint: mean survival time, dose: 300.0 mg/kg/injection, schedule: Q01DX009 (ip), vehicle: saline with Tween-80).

On to `O/N=C\c1ccc(/C=N/O)cc1`, for which the T/C runs as follows: under setting [5], 94 % of control; under setting [7], 92 % of control.

In the case of `Cc1cccc(Cl)c1NC(=O)/C=C/c1ccccc1`, the T/C runs as follows: (endpoint: mean survival time, dose: 100.0 mg/kg/injection, schedule: Q04DX002 (ip), vehicle: saline with Tween-80) 87 % of control; (endpoint: mean survival time, dose: 200.0 mg/kg/injection, schedule: Q04DX002 (ip), vehicle: saline with Tween-80) 94 % of control; (endpoint: mean survival time, dose: 400.0 mg/kg/injection, schedule: Q04DX002 (ip), vehicle: saline with Tween-80) 105 % of control.

With `CC1=NN(c2ccc([N+](=O)[O-])cc2)C(=O)C1[N+](=O)[O-]` (stereo not given) (tested in a mixture with another compound), the T/C was 92 % of control (endpoint: mean survival time, dose: 75.0 mg/kg/injection, schedule: Q01DX001 (ip), vehicle: other); 91 % of control under setting [3]; 104 % of control (endpoint: mean survival time, dose: 150.0 mg/kg/injection, schedule: Q01DX001 (ip), vehicle: other); 97 % of control under setting [4].
